26 molecules from ChEMBL document CHEMBL1128859, “Cmi-206: A potent dual platelet activating factor antagonist and 5-lipoxygenase inhibitor” (Bioorg Med Chem Lett, 1995) can be followed below.

In assay [1] the target is Platelet-activating factor receptor (Homo sapiens, UniProt P25105). Kind of assay: In vitro affinity for human PAF receptor on platelet membranes using [3H]PAF displacement.
Assay [2] concerns the target T1, Polyunsaturated fatty acid 5-lipoxygenase (Rattus norvegicus, UniProt P12527).
T1 sequence (P12527 whole entry): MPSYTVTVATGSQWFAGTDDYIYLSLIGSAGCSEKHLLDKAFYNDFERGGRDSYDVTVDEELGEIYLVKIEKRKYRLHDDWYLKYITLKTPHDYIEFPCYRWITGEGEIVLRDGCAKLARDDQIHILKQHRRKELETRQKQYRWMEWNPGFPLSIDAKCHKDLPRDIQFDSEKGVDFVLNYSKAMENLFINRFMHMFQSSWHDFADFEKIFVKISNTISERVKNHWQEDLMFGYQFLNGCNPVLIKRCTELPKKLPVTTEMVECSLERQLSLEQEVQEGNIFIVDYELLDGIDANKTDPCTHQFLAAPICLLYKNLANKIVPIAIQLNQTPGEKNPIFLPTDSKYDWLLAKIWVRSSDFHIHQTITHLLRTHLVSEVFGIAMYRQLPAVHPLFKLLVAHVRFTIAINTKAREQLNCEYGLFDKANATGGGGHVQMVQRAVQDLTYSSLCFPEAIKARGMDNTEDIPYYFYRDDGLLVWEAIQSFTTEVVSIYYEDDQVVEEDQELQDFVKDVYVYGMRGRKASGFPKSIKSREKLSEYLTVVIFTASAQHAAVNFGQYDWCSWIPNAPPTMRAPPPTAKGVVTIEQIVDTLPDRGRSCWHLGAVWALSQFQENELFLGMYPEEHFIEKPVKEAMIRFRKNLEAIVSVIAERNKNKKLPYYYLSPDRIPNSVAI
Kind of assay: In vitro inhibition of 5-lipoxygenase in RBL-2H3 (Rat basophilic leukemia) cells. In kind it is functional, cell-based.

The subject of assay [3] is Mus musculus. The assay can be described thus: Ability to antagonize PAF-induced hemoconcentration PAF HTc in mice at a dose of 3 mg/kg. In kind it is functional.
For assay [4], the system named is Mus musculus. Kind of assay: Arachidonic acid (AA)-induced ear edema in mice was determined by topically applying AA to ears of mice. In kind it is functional.
The species named for assay [5] is Homo sapiens. The assay can be described thus: Inhibition of human whole blood (HWB) LTB4 production in A-23,187-activated human whole blood by the enzyme immunoassay at a dose of 3 uM. In kind it is functional.
The species named for assay [6] is Homo sapiens. Kind of assay: Inhibition of human whole blood (HWB) LTB4 production in A-23,187-activated human whole blood by the enzyme immunoassay. In kind it is functional.
For another assay, the system named is Rattus norvegicus. The assay can be described thus: Concentration of LTB4 was determined by enzyme immunoassay (Ex vivo) rat whole blood after intravenous administration of 5 mg/Kg. In kind it is functional.

Structures are written as SMILES.

Platelet-activating factor receptor, sequence (P25105 whole entry): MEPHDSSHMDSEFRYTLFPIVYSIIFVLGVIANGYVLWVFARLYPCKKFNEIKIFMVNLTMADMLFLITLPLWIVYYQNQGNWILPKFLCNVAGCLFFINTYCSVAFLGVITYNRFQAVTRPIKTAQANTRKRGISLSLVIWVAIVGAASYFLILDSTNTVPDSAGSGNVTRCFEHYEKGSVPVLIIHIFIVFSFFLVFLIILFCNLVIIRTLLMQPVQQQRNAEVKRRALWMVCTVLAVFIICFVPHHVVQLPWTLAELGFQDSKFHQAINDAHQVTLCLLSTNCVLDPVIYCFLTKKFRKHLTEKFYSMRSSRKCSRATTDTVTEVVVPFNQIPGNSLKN

Take `CCCOc1cc([C@H]2CC[C@H](c3cc(OC)c(OC)c(OC)c3)O2)cc(N(CC)C(=O)N(O)CC)c1OCCC`: the IC50 was determined as 17 nM in assay [1] and 1340 nM in assay [2]. As for `CCCOc1c(NC(=O)N(O)C2CCCCC2)cc(C2CCC(c3cc(OC)c(OC)c(OC)c3)O2)cc1OC` (trans isomer), the half-inhibitory concentration (IC50) in assay [1] was 278 nM.

Molecule `CCCCN(O)C(=O)Nc1cc(C2CCC(c3cc(OC)c(OC)c(OC)c3)O2)cc(OC)c1OCCC` (stereo in doubt) displayed an inhibition in vivo at 3 mg/kg with Mus musculus [3] of 31%. In the assay on Mus musculus [4], this molecule showed an Inhibition of 60%. Further, the IC50 in assay [1] came to 33 nM; in the assay filed under Homo sapiens [6] it was 1680 nM; in assay [2], 420 nM. This molecule had an inhibition at 3 µM in the assay listed under Homo sapiens [5] of 64%. In the assay with Rattus norvegicus, the inhibition in vivo at 5 mg/kg was 67%. Regarding `CCCOc1c(NC(=O)N(O)C(C)CC)cc(C2CCC(c3cc(OC)c(OC)c(OC)c3)O2)cc1OC` (cis isomer), the figures for the IC50 in assay [1] and in assay [2] were 1610 nM and 450 nM, respectively. Turning to `CCCOc1c(NC(=O)NO)cc(C2CCC(c3cc(OC)c(OC)c(OC)c3)O2)cc1OC` (trans isomer), the IC50 in assay [1] turned out to be 30 nM. Take `CCCOc1c(NC(=O)N(O)CC)cc(C2CCC(c3cc(OC)c(OC)c(OC)c3)O2)cc1OC` (stereo in doubt): the IC50 in assay [1] was 383 nM; in assay [2], 3000 nM.

As for `CCCOc1c(NC(=O)NO)cc(C2CCC(c3cc(OC)c(OC)c(OC)c3)O2)cc1OC` (stereo in doubt), the IC50 in assay [1] was determined as 300 nM. In other words, the sub-micromolar range. Same read-out and setting: the result for `CCCOc1cc([C@H]2CC[C@H](c3cc(OC)c(OC)c(OC)c3)O2)cc(N(CC)C(=O)N(O)CCC)c1OCCC` reads 56 nM.

With `CCCNC(=O)N(O)c1cc([C@H]2CC[C@H](c3cc(OC)c(OC)c(OC)c3)O2)cc(OCCC)c1OCCC`, the results for the IC50 in assay [1] and in assay [2] were 91 nM and 3000 nM, respectively. The like results for `CCCOc1c(NC(=O)N(O)C(C)C)cc(C2CCC(c3cc(OC)c(OC)c(OC)c3)O2)cc1OC` (stereo in doubt) were, in that order, 858 nM and 2830 nM. As to `CCCOc1c(NC(=O)N(C)O)cc(C2CCC(c3cc(OC)c(OC)c(OC)c3)O2)cc1OC` (trans isomer), the IC50 in assay [1] was determined as 17 nM; in assay [2], 630 nM.

`CCCOc1c(NC(=O)N(O)CC)cc(C2CCC(c3cc(OC)c(OC)c(OC)c3)O2)cc1OC` (trans isomer) returned an inhibition in vivo at 3 mg/kg in the assay with Mus musculus [3] of 58%. Also, the half-maximal inhibitory concentration (IC50) in assay [1] was 8 nM; in assay [2], 150 nM. For the same molecule, the inhibition at 3 µM in the assay listed under Homo sapiens [5] stood at 23%. `CCCOc1c(NC(=O)N(O)C(C)(C)C)cc(C2CCC(c3cc(OC)c(OC)c(OC)c3)O2)cc1OC` (cis isomer): in assay [1], the IC50 was determined as 456 nM. In other words, the sub-micromolar range. As for `CCCOc1cc([C@H]2CC[C@H](c3cc(OC)c(OC)c(OC)c3)O2)cc(N(O)C(=O)NCC)c1OCCC`, the IC50 in assay [1] was 59 nM. Against the preceding molecule, the IC50 is about 7.7-fold lower.

`CC(c1cc2ccccc2s1)N(O)C(N)=O` (stereo not given) [ZILEUTON] gave an inhibition at 3 µM in the assay filed under Homo sapiens [5] of 75%. `CCCOc1c(NC(=O)N(O)CCC)cc(C2CCC(c3cc(OC)c(OC)c(OC)c3)O2)cc1OC` (trans isomer) registered an IC50 in assay [2] (rbl-2h3) of 10000 nM. In the case of `CCCOc1c(NC(=O)N(O)Cc2ccccc2)cc(C2CCC(c3cc(OC)c(OC)c(OC)c3)O2)cc1OC` (cis isomer), the IC50 in assay [1] stood at 585 nM; in assay [2], 8000 nM. In the same order, the values of `CCCOc1c(NC(=O)N(O)C(C)(C)C)cc(C2CCC(c3cc(OC)c(OC)c(OC)c3)O2)cc1OC` (trans isomer) are 26 nM and 2900 nM. In the same order, the values of `CCCOc1c(NC(=O)N(O)C2CCCCC2)cc(C2CCC(c3cc(OC)c(OC)c(OC)c3)O2)cc1OC` (cis isomer) are 1000 nM and 2540 nM. In the case of `CCCOc1c(NC(=O)N(O)Cc2ccccc2)cc(C2CCC(c3cc(OC)c(OC)c(OC)c3)O2)cc1OC` (trans isomer), the figures for the IC50 in assay [1] and in assay [2] were 423 nM and 2240 nM, respectively. The like results for `CCCOc1c(NC(=O)N(O)C(C)C)cc(C2CCC(c3cc(OC)c(OC)c(OC)c3)O2)cc1OC` (trans isomer) were, in that order, 58 nM and 3000 nM. On to `CCCOc1c(NC(=O)N(C)O)cc(C2CCC(c3cc(OC)c(OC)c(OC)c3)O2)cc1OC` (cis isomer), for which the IC50 in assay [1] came out at 514 nM. For `CCCOc1cc([C@H]2CC[C@H](c3cc(OC)c(OC)c(OC)c3)O2)cc(N(CC)C(=O)N(C)O)c1OCCC`, the figures for the IC50 in assay [1] and in assay [2] were 68 nM and 3070 nM, respectively. In assay [2], `CCCOc1c(NC(=O)N(O)CCC)cc(C2CCC(c3cc(OC)c(OC)c(OC)c3)O2)cc1OC` (stereo in doubt) returned an IC50 of 10000 nM. For `CCCCN(O)C(=O)Nc1cc(C2CCC(c3cc(OC)c(OC)c(OC)c3)O2)cc(OC)c1OCCC` (cis isomer), the results for the concentration for half-maximal inhibition (IC50) in assay [1] and in assay [2] were 1310 nM and 500 nM, respectively. Turning to `CCCOc1c(NC(=O)N(O)C(C)CC)cc(C2CCC(c3cc(OC)c(OC)c(OC)c3)O2)cc1OC` (trans isomer), the IC50 is 25 nM in assay [1] and 600 nM in assay [2]. This molecule had an inhibition at 3 µM in the assay filed under Homo sapiens [5] of 57%.

As usually defined, the IC50 is the concentration at which inhibition is half-maximal. The low end stands for inhibition by little substance, the high end for a need for much substance. The inhibition in vivo is the relative decrease from the control value, in per cent. What is called Inhibition is the share of the control response that was lost under treatment. Read a high Inhibition as a strong effect. One may read the inhibition as the relative decrease from the control value, in per cent.
